Patent publication US20250313533A1, “QUINOLINE CARBOXYLIC ACID ESTER COMPOUND AND PREPARATION METHOD AND USE THEREOF” (priority 2019, published 2025)

Legend:
[1] = tested on: pathogenic bacteria causing bacterial angular leaf spot in cucumbers; experiment: In vitro bactericidal activity, bacterial angular leaf spot in cucumbers; assay type: cell-based, pseudomonas; details: read-out: inhibitory rate; for inhibition at 1 ppm: dosage 1 ppm; for inhibition at 5 ppm: dosage 5 ppm
[2] = tested on: stem rot in sweet potatoes; experiment: whole plant or invertebrate; details: read-out: efficacy against stem rot in sweet potatoes
[3] = tested on: pathogenic bacteria causing bacterial wilt in cassava; experiment: organism not typed; assay type: cell-based; details: read-out: inhibitory rate
[4] = tested on: pathogenic bacteria causing fire blight in pears; experiment: In vitro bactericidal activity, fire blight in pears; assay type: cell-based, erwinia; details: Erwinia, read-out: inhibitory rate; for inhibition at 1 ppm: dosage 1 ppm; for inhibition at 5 ppm: dosage 5 ppm
[5] = tested on: bacterial wilt in tobacco; experiment: whole plant or invertebrate; details: Nicotiana tabacum, read-out: efficacy against bacterial wilt in tobacco
cucumber seedlings = experiment: Safety for plant growth after application; assay type: in vivo; details: dosage 200 ppm
Procedure, shortened: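 Compound applied to indoor cucumber seedlings in pots. Growth then scored: height increase rate, leaf chlorophyll, leaf area.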

[6] = tested on: pathogenic bacteria causing fruit blotch in watermelons; experiment: In vitro bactericidal activity, fruit blotch in watermelons; assay type: cell-based, acidovorax; details: read-out: inhibitory rate; for inhibition at 1 ppm: dosage 1 ppm; for inhibition at 5 ppm: dosage 5 ppm
[7] = tested on: soft rot in Chinese cabbages; experiment: whole plant or invertebrate; details: 48 h, read-out: efficacy against soft rot in Chinese cabbages
[8] = tested on: pathogenic bacteria causing black rot in Chinese cabbages; experiment: In vitro bactericidal activity, black rot in Chinese cabbages; assay type: cell-based, xanthomonas; details: Xanthomonas, read-out: inhibitory rate; for inhibition at 1 ppm: dosage 1 ppm; for inhibition at 5 ppm: dosage 5 ppm
[9] = tested on: pathogenic bacteria causing black shank in potatoes; experiment: In vitro bactericidal activity, black shank in potatoes; assay type: cell-based; details: read-out: inhibitory rate; for inhibition at 1 ppm: dosage 1 ppm; for inhibition at 5 ppm: dosage 5 ppm
bacterial blight in rice = experiment: whole plant or invertebrate; details: Oryza sativa, read-out: efficacy against bacterial blight in rice
black shank in potatoes = experiment: Living crops in vivo protective activity, potatoes (root irrigation); details: Solanum tuberosum, read-out: efficacy against black shank in potatoes; for pest or weed control at 5 ppm: dosage 5 ppm; for pest or weed control at 10 ppm: dosage 10 ppm
Protocol: Root irrigation was carried out on the potatoes for tests according to the designed concentration of the agents. The dosage for each plant was 200 mL and was kept consistent (also for the control). The black shank bacteria were inoculated on the second day after the application. The results were investigated according to the disease condition.

[10] = tested on: indoor potted cucumber seedlings; experiment: Effect of improving growth and development of crops; assay type: in vivo; design: Rate of growth rate increase (%): concentration or dose not given beside the values; details: versus blank control; for Rate of chlorophyll content increase (%) / Rate of leaf area increase (%): 14 days after application; for Rate of growth rate increase (%): plant height 14 days after application; for Rate of leaf area increase (%): second leaf
Procedure, shortened: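 SPAD chlorophyll, plant height and second-leaf dimensions measured at application and 14 d later; leaf area from length (base to tip) and width (upper shoulder).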

[11] = tested on: pathogenic bacteria causing stem rot in sweet potatoes; experiment: In vitro bactericidal activity, stem rot in sweet potatoes; assay type: cell-based, dikia; details: read-out: inhibitory rate; for inhibition at 1 ppm: dosage 1 ppm; for inhibition at 5 ppm: dosage 5 ppm
[12] = tested on: pathogenic bacteria causing bacterial wilt in tobacco; experiment: whole plant or invertebrate; assay type: cell-based, ralstonia; details: read-out: inhibitory rate
[13] = tested on: fruit blotch in watermelons; experiment: whole plant or invertebrate; details: read-out: efficacy against fruit blotch in watermelons
[14] = tested on: pathogenic bacteria causing bacterial blight in rice; experiment: whole plant or invertebrate; assay type: cell-based, xanthomonas; details: read-out: inhibitory rate

Compound	inhibition at 1 ppm [1] [%]	inhibition at 5 ppm [1] [%]	pest or weed control at 5 ppm [2] [%]	pest or weed control at 10 ppm [2] [%]	inhibition at 1 ppm [3] [%]	inhibition at 5 ppm [3] [%]	inhibition at 1 ppm [4] [%]	inhibition at 5 ppm [4] [%]	pest or weed control at 5 ppm [5] [%]	pest or weed control at 10 ppm [5] [%]	safety for plant growth (discoloration, necrosis, wilt, malformation) (cucumber seedlings)	inhibition at 1 ppm [6] [%]	inhibition at 5 ppm [6] [%]	pest or weed control at 5 ppm [7] [%]	pest or weed control at 10 ppm [7] [%]	inhibition at 1 ppm [8] [%]	inhibition at 5 ppm [8] [%]	inhibition at 1 ppm [9] [%]	inhibition at 5 ppm [9] [%]	pest or weed control at 5 ppm (bacterial blight in rice) [%]	other results
COCCCOC(=O)c1cn(C2CC2)c2cc(OC)c(F)cc2c1=O [Compound 323]	≥ 90	≥ 90	≥ 90	≥ 90	≥ 90	≥ 90	≥ 90	≥ 90	≥ 90	≥ 90	safe for plant growth	≥ 90	≥ 90	≥ 90	≥ 90	≥ 90	≥ 90	≥ 90	≥ 90	≥ 90	pest or weed control at 10 ppm (bacterial blight in rice): ≥ 90%; pest or weed control at 5 ppm (black shank in potatoes): ≥ 90%; pest or weed control at 10 ppm (black shank in potatoes): ≥ 90%; Rate of chlorophyll content increase (%) [10]: 19%; Rate of growth rate increase (%) [10]: 13%; Rate of leaf area increase (%) [10]: 13%; inhibition at 1 ppm [11]: ≥ 90%; inhibition at 5 ppm [11]: ≥ 90%; inhibition at 1 ppm [12]: ≥ 90%; inhibition at 5 ppm [12]: ≥ 90%; pest or weed control at 5 ppm [13]: ≥ 90%; pest or weed control at 10 ppm [13]: ≥ 90%; inhibition at 1 ppm [14]: ≥ 90%; inhibition at 5 ppm [14]: ≥ 90%
CCOCCOC(=O)c1cn(C2CC2)c2cc(OC)c(F)cc2c1=O [Compound 326]	≥ 90	≥ 90	≥ 90	≥ 90	≥ 90	≥ 90	≥ 90	≥ 90	≥ 90	≥ 90	safe for plant growth	≥ 90	≥ 90	≥ 90	≥ 90	≥ 90	≥ 90	≥ 90	≥ 90	≥ 90	pest or weed control at 10 ppm (bacterial blight in rice): ≥ 90%; pest or weed control at 5 ppm (black shank in potatoes): ≥ 90%; pest or weed control at 10 ppm (black shank in potatoes): ≥ 90%; Rate of chlorophyll content increase (%) [10]: 15%; Rate of growth rate increase (%) [10]: 13%; Rate of leaf area increase (%) [10]: 15%; inhibition at 1 ppm [11]: ≥ 90%; inhibition at 5 ppm [11]: ≥ 90%; inhibition at 1 ppm [12]: ≥ 90%; inhibition at 5 ppm [12]: ≥ 90%; pest or weed control at 5 ppm [13]: ≥ 90%; pest or weed control at 10 ppm [13]: ≥ 90%; inhibition at 1 ppm [14]: ≥ 90%; inhibition at 5 ppm [14]: ≥ 90%
O=C(OCCCO)c1cn(C2CC2)c2cc(OCC(F)(F)F)c(F)cc2c1=O [Compound 329]	≥ 90	≥ 90	≥ 90	≥ 90	≥ 90	≥ 90	≥ 90	≥ 90	≥ 90	≥ 90	safe for plant growth	≥ 90	≥ 90	≥ 90	≥ 90	≥ 90	≥ 90	≥ 90	≥ 90	≥ 90	pest or weed control at 10 ppm (bacterial blight in rice): ≥ 90%; pest or weed control at 5 ppm (black shank in potatoes): ≥ 90%; pest or weed control at 10 ppm (black shank in potatoes): ≥ 90%; Rate of chlorophyll content increase (%) [10]: 17%; Rate of growth rate increase (%) [10]: 13%; Rate of leaf area increase (%) [10]: 17%; inhibition at 1 ppm [11]: ≥ 90%; inhibition at 5 ppm [11]: ≥ 90%; inhibition at 1 ppm [12]: ≥ 90%; inhibition at 5 ppm [12]: ≥ 90%; pest or weed control at 5 ppm [13]: ≥ 90%; pest or weed control at 10 ppm [13]: ≥ 90%; inhibition at 1 ppm [14]: ≥ 90%; inhibition at 5 ppm [14]: ≥ 90%
CCOCCOC(=O)c1cn(C2CC2)c2cc(OCC(F)(F)F)c(F)cc2c1=O [Compound 335]	≥ 90	≥ 90	≥ 90	≥ 90	≥ 90	≥ 90	≥ 90	≥ 90	≥ 90	≥ 90	safe for plant growth	≥ 90	≥ 90	≥ 90	≥ 90	≥ 90	≥ 90	≥ 90	≥ 90	≥ 90	pest or weed control at 10 ppm (bacterial blight in rice): ≥ 90%; pest or weed control at 5 ppm (black shank in potatoes): ≥ 90%; pest or weed control at 10 ppm (black shank in potatoes): ≥ 90%; Rate of chlorophyll content increase (%) [10]: 16%; Rate of growth rate increase (%) [10]: 12%; Rate of leaf area increase (%) [10]: 16%; inhibition at 1 ppm [11]: ≥ 90%; inhibition at 5 ppm [11]: ≥ 90%; inhibition at 1 ppm [12]: ≥ 90%; inhibition at 5 ppm [12]: ≥ 90%; pest or weed control at 5 ppm [13]: ≥ 90%; pest or weed control at 10 ppm [13]: ≥ 90%; inhibition at 1 ppm [14]: ≥ 90%; inhibition at 5 ppm [14]: ≥ 90%
